Reference: ChEMBL document CHEMBL5608182, “Synthesis and evaluation of neuroactive steroids with novel pharmacophore at C-21 let identify a compound with advantageous PK profile and higher EC50 and Emax as PAM on GABAA receptor” (Eur J Med Chem, 2024)

Tests used:
[1] = target: GABA-A receptor; alpha-1/beta-2/gamma-2 (Homo sapiens) (UniProt P14867+P47870+P18507); experiment: (§1) Positive allosteric modulation of synaptic alpha1beta2gamma2 GABA-A receptor (unknown origin) transfected in LTK cells assessed as potentiation of GABA-induced peak current amplitude by measuring maximal efficacy at 0.01 to 10 uM at -80 mV holding potential preincubated for 30 secs followed by GABA stimulation for 2 secs by Q-patch assay relative to control; format: cell-based; conditions: filed as positive allosteric modulator, dose 0.01-10 µM, time 32.0 sec
[2] = target: Gamma-aminobutyric acid receptor subunit alpha-4/beta3/delta (Homo sapiens, UniProt O14764+P28472+P48169); experiment: Positive allosteric modulation of extrasynaptic alpha4beta3delta GABA-A receptor (unknown origin) transfected in CHO cells assessed as potentiation of GABA-induced peak current amplitude at -80 mV holding potential preincubated for 30 secs followed by GABA stimulation for 2 secs by manual patch assay; format: cell-based
[3] = target: T1, GABA-A receptor; alpha-1/beta-2/gamma-2 (Homo sapiens, UniProt P14867+P18507+P47870); experiment: Positive allosteric modulation of synaptic alpha1beta2gamma2 GABA-A receptor (unknown origin) transfected in LTK cells assessed as potentiation of GABA-induced peak current amplitude at -80 mV holding potential preincubated for 30 secs followed by GABA stimulation for 2 secs by Q-patch assay; format: cell-based
T1 sequence (P14867 whole entry): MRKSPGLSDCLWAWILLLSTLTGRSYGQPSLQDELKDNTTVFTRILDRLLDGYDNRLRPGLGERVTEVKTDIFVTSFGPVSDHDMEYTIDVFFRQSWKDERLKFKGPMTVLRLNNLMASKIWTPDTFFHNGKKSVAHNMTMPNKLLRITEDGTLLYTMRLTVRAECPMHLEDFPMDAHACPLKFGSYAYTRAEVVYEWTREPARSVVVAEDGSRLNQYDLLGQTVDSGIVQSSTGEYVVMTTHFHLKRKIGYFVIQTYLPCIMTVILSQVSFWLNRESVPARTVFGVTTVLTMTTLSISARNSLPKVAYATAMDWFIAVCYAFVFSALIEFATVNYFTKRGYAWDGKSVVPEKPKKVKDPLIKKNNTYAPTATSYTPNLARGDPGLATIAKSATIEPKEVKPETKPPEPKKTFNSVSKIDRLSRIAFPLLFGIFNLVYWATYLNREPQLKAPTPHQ
T1 sequence (P47870 whole entry): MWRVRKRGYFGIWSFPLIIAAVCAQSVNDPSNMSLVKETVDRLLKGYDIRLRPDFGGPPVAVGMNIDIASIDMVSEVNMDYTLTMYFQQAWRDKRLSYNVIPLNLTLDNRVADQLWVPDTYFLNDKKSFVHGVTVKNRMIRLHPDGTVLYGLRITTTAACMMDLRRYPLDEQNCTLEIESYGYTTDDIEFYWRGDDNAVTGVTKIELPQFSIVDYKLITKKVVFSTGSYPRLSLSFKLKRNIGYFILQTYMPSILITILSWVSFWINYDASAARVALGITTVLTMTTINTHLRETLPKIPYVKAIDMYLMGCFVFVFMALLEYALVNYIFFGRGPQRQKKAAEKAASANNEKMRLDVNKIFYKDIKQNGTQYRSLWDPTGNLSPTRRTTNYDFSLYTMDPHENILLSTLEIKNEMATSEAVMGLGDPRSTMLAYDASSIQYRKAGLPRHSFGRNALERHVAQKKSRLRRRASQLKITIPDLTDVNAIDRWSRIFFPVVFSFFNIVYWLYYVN
T1 sequence (P18507 whole entry): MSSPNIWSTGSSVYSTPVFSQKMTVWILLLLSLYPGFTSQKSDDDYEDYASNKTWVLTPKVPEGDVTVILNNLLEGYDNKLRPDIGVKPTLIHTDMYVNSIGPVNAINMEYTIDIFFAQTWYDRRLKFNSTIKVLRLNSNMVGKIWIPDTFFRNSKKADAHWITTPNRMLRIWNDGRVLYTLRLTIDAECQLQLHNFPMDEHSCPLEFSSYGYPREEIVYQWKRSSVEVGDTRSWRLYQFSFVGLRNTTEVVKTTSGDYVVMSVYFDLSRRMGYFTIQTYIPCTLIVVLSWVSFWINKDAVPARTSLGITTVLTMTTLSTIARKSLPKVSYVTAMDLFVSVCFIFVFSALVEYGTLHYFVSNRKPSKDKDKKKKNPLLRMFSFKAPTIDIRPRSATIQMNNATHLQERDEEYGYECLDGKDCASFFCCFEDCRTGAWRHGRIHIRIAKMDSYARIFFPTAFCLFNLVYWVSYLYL

[4] = target: Gamma-aminobutyric acid receptor subunit alpha-4/beta3/delta (Homo sapiens) (UniProt P28472+P48169+O14764); experiment: as §1, with “extrasynaptic alpha4beta3delta” for “synaptic alpha1beta2gamma2”, “CHO” for “LTK”, “manual patch” for “Q-patch”; format: cell-based; conditions: filed as positive allosteric modulator, dose 0.01-10 µM, time 32.0 sec
[5] = target: GABA-A receptor; anion channel; experiment: Inhibition of [35S]TBPS binding to GABA-A receptor in Sprague-Dawley rat brain cortical membrane incubated for 90 mins by liquid scintillation spectrometry; format: cell membranes, Cortex
[6] = Metabolic stability in human liver microsomes assessed as compound remaining at 1 uM preincubated for 10 mins followed by NADPH addition by LC-MS analysis; format: ADME, Microsome; conditions: read-out: Stability
[7] = Metabolic stability in Sprague-Dawley rat liver microsomes assessed as intrinsic clearance at 1 uM preincubated for 10 mins followed by NADPH addition by LC-MS analysis; format: ADME, Microsome; conditions: read-out: CLH
[8] = Metabolic stability in Sprague-Dawley rat liver microsomes assessed as compound remaining at 1 uM preincubated for 10 mins followed by NADPH addition by LC-MS analysis; format: ADME, Microsome; conditions: read-out: Stability
[9] = Metabolic stability in human liver microsomes assessed as intrinsic clearance at 1 uM preincubated for 10 mins followed by NADPH addition by LC-MS analysis; format: ADME, Microsome; conditions: read-out: CLH

Gamma-aminobutyric acid receptor subunit alpha-4/beta3/delta, sequence (P28472 whole entry): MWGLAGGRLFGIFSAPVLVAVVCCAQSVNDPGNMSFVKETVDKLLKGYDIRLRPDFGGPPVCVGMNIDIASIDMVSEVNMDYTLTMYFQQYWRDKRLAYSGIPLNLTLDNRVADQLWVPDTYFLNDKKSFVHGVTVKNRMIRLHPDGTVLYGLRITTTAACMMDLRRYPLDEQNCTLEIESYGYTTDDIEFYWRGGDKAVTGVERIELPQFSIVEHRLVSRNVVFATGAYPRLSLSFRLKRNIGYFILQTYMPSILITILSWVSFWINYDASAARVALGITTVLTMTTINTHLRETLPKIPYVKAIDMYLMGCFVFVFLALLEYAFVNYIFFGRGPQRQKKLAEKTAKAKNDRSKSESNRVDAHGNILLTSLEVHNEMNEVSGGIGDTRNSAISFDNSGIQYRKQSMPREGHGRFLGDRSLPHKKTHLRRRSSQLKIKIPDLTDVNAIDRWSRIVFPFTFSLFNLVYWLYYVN
Gamma-aminobutyric acid receptor subunit alpha-4/beta3/delta, sequence (P48169 whole entry): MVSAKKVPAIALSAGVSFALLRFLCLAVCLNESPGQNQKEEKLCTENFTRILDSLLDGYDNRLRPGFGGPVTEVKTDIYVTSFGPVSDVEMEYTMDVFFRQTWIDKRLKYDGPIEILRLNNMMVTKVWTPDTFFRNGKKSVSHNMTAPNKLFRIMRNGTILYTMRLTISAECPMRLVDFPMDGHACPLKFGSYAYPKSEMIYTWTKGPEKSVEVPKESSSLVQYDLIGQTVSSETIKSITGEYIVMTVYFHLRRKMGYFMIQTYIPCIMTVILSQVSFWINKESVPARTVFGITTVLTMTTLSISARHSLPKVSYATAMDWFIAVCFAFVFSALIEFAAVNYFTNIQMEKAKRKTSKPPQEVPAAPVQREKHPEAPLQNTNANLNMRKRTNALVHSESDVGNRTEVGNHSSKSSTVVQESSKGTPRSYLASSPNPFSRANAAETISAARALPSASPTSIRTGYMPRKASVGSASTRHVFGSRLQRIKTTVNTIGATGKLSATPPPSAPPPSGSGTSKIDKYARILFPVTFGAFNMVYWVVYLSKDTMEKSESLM
Gamma-aminobutyric acid receptor subunit alpha-4/beta3/delta, sequence (O14764 whole entry): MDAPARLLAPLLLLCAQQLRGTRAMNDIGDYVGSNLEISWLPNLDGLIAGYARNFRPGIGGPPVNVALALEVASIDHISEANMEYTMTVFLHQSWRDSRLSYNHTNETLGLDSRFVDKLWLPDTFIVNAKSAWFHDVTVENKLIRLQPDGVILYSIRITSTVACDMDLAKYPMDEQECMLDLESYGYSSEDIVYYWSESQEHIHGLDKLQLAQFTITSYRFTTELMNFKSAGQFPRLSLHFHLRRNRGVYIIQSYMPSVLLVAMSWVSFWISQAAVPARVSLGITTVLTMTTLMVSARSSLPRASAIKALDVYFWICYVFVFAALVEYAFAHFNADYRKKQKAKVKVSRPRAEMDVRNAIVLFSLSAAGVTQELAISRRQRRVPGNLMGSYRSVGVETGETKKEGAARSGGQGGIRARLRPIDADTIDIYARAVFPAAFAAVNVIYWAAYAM

Structure (SMILES)	Emax [1] [%]	EC50 [2] [nM]	EC50 [3] [nM]	Emax [4] [%]	IC50 [5] [nM]	remaining at 1 µM [6] [%]	CLint scaled at 1 µM [7] [mL/min/kg]	remaining at 1 µM [8] [%]	CLint scaled at 1 µM [9] [mL/min/kg]
CC(C)(C)n1ncn(CC(=O)[C@H]2CC[C@H]3[C@@H]4CC[C@@H]5C[C@](C)(O)CC[C@@H]5[C@H]4CC[C@]23C)c1=O	806	268	310	749	–	–	–	–	–
C[C@@]1(O)CC[C@H]2[C@H](CC[C@@H]3[C@@H]2CC[C@]2(C)[C@@H](C(=O)Cn4cnn(-c5cccc(C#N)c5)c4=O)CC[C@@H]32)C1	1050	50	112	683	–	–	–	–	–
C[C@@]1(O)CC[C@H]2[C@H](CC[C@@H]3[C@@H]2CC[C@]2(C)[C@@H](C(=O)Cn4cnn(-c5cccc(F)c5F)c4=O)CC[C@@H]32)C1	445	42	126	526	–	–	–	–	–
C[C@@]1(O)CC[C@H]2[C@H](CC[C@@H]3[C@@H]2CC[C@]2(C)[C@@H](C(=O)Cn4ncn(-c5cccc(F)c5)c4=O)CC[C@@H]32)C1	1260	112	371	334	1	–	–	–	–
C[C@@]1(O)CC[C@H]2[C@H](CC[C@@H]3[C@@H]2CC[C@]2(C)[C@@H](C(=O)Cn4cnn(-c5ccc(F)cc5)c4=O)CC[C@@H]32)C1	390	170	220	410	–	–	–	–	–
C[C@@]1(O)CC[C@H]2[C@H](CC[C@@H]3[C@@H]2CC[C@]2(C)[C@@H](C(=O)Cn4cnn(C5CCCC5)c4=O)CC[C@@H]32)C1	691	203	192	830	–	–	–	–	–
C[C@@]1(O)CC[C@H]2[C@H](CC[C@@H]3[C@@H]2CC[C@]2(C)[C@@H](C(=O)Cn4cnn(-c5cccc(OC(F)(F)F)c5)c4=O)CC[C@@H]32)C1	629	41	182	1580	–	–	–	–	–
COc1cccc(-n2ncn(CC(=O)[C@H]3CC[C@H]4[C@@H]5CC[C@@H]6C[C@](C)(O)CC[C@@H]6[C@H]5CC[C@]34C)c2=O)c1	410	21	26	570	–	43.5	176	14.2	24
Cn1ncn(CC(=O)[C@H]2CC[C@H]3[C@@H]4CC[C@@H]5C[C@](C)(O)CC[C@@H]5[C@H]4CC[C@]23C)c1=O	242	305	444	497	–	–	–	–	–
C[C@@]1(O)CC[C@H]2[C@H](CC[C@@H]3[C@@H]2CC[C@]2(C)[C@@H](C(=O)Cn4cnn(-c5ccc(F)cc5F)c4=O)CC[C@@H]32)C1	692	89	784	542	–	–	–	–	–
C[C@@]1(O)CC[C@H]2[C@H](CC[C@@H]3[C@@H]2CC[C@]2(C)[C@@H](C(=O)Cn4cnn(C5CCCCC5)c4=O)CC[C@@H]32)C1	873	237	585	685	–	–	–	–	–
C[C@@]1(O)CC[C@H]2[C@H](CC[C@@H]3[C@@H]2CC[C@]2(C)[C@@H](C(=O)Cn4cnn(-c5ccccc5)c4=O)CC[C@@H]32)C1	430	29	90	430	–	–	–	–	–
